Test results from US20110190365A1, “Insecticidal 4-phenyl-1H-pyrazoles” (Bayer Crop Science AG, priority 2008, published 2011).

Experiment: log P by HPLC on a reversed-phase column (C18), EEC Directive 79/831 Annex V.A8
Assay type: physicochemical
Conditions: HCOOH
Experimental: The stated log P values were determined in accordance with EEC Directive 79/831 Annex V.A8 by HPLC (High Performance Liquid Chromatography) using a reversed-phase column (C18).

With `CCC(C)NC(=O)c1ccc(-n2nc(C(F)(F)F)c(-c3cc(Cl)cc(Cl)c3)c2N)cc1` (stereo not drawn) [I-A-Q2-145] as the molecule, how does the “log P (HCOOH)” value read?
Its value is “I-A-Q2-145: log P (HCOOH): 4.34”.

With `Cc1cc(-n2nc(C(F)(F)F)c(-c3c(F)cc(F)cc3F)c2N)ccc1C(=O)NCC(F)(F)C(F)F` [I-A-Q2-307] as the molecule, how does the “log P (HCOOH)” value read?
The value was “I-A-Q2-307: log P (HCOOH): 3.27”.

For `CCCNC(=O)c1ccc(-n2nc(C(F)(F)F)c(-c3cc(Cl)cc(Cl)c3)c2N)cc1` [I-A-Q2-151], which “log P (HCOOH)” value is on record?
Its value is “I-A-Q2-151: log P (HCOOH): 4.06”.

With `CC(NC(=O)c1ccc(-n2nc(C(F)(F)F)c(-c3ccc(Br)cc3)c2N)cc1)c1ccccn1` (stereo not drawn) [I-A-Q2-192] as the molecule, how does the “log P (HCOOH)” value read?
Its value is “I-A-Q2-192: log P (HCOOH): 2.89”.

With `CCCc1nn(-c2ccc(C(=O)NCC(F)(F)C(F)F)c(C)c2)c(N)c1-c1ccc(Cl)cc1` [I-A-Q2-340] as the molecule, how does the “log P (HCOOH)” value read?
The value was “I-A-Q2-340: log P (HCOOH): 3.56”.

Which “log P (HCOOH)” value does the source give for `CCCc1nn(-c2ccc(C(=O)NCc3ccccn3)c(C)c2)c(N)c1-c1ccc(Cl)cc1` [I-A-Q2-380] here?
The value was “I-A-Q2-380: log P (HCOOH): 2.53”.

With `Cc1cc(-n2nc(C(F)(F)F)c(-c3ccc(Cl)cc3)c2N)ccc1C(=O)NCc1ccccn1` [I-A-Q2-345] as the molecule, how does the “log P (HCOOH)” value read?
Its value is “I-A-Q2-345: log P (HCOOH): 2.69”.

With `CC(NC(=O)c1ccc(-n2nc(C(F)(F)F)c(-c3cc(Cl)cc(Cl)c3)c2N)cc1)C(F)(F)F` (stereo not drawn) [I-A-Q2-133] as the molecule, how does the “log P (HCOOH)” value read?
Its value is “I-A-Q2-133: log P (HCOOH): 4.44”.

For `CC(NC(=O)c1ccc(-n2nc(C(F)(F)F)c(-c3cc(F)cc(Cl)c3)c2N)cc1)C(F)(F)F` (stereo not drawn) [I-A-Q2-084], which “log P (HCOOH)” value is on record?
Its value is “I-A-Q2-084: log P (HCOOH): 3.89”.

Which “log P (HCOOH)” value does the source give for `Cc1cc(-n2nc(C(F)(F)F)c(-c3cc(Cl)cc(Cl)c3)c2N)ccc1C(=O)NC1CC1F` (stereo not drawn) [I-A-Q2-281] here?
Its value is “I-A-Q2-281: log P (HCOOH): 3.97”.

With `Cc1cc(-n2nc(C(F)(F)F)c(-c3cc(Cl)cc(Cl)c3)c2N)ccc1C(=O)NCCN1CCOCC1` [I-A-Q2-264] as the molecule, how does the “log P (HCOOH)” value read?
The value was “I-A-Q2-264: log P (HCOOH): 1.99”.

For `Cc1cc(-n2nc(C(F)(F)F)c(Br)c2N)ccc1C(=O)NCC(F)(F)C(F)F` [XI-A-092], which “log P (HCOOH)” value is on record?
Its value is “XI-A-092: log P (HCOOH): 3.03”.

Which “log P (HCOOH)” value does the source give for `CC(NC(=O)c1ccc(-n2nc(C(F)(F)F)c(-c3cccc(Br)c3)c2N)cc1)C(F)(F)F` (stereo not drawn) [I-A-Q2-172] here?
Its value is “I-A-Q2-172: log P (HCOOH): 3.73”.

Which “log P (HCOOH)” value does the source give for `Nc1c(-c2cc(Cl)cc(Cl)c2)c(C(F)(F)F)nn1-c1ccc(C(=O)NCc2ccccn2)cn1` [I-A-Q2-105] here?
Its value is “I-A-Q2-105: log P (HCOOH): 3.61”.

Which “log P (HCOOH)” value does the source give for `Cc1cc(-n2nc(C(F)(F)C(F)(F)F)c(-c3cc(C(F)(F)F)cc(C(F)(F)F)c3)c2N)ccc1C(=O)NCc1ccccn1` [I-A-Q2-383] here?
Its value is “I-A-Q2-383: log P (HCOOH): 3.94”.

Which “log P (HCOOH)” value does the source give for `Cc1cc(-n2nc(C(F)(F)F)c(-c3cc(Cl)cc(Cl)c3)c2N)ccc1C(=O)NC1CCOCC1` [I-A-Q2-250] here?
Its value is “I-A-Q2-250: log P (HCOOH): 3.68”.

With `Cc1cc(-n2nc(C(F)(F)F)c(-c3cc(Cl)cc(Cl)c3)c2N)ccc1C(=O)NC1CCCCC1C(F)(F)F` (stereo not drawn) [I-A-Q2-274] as the molecule, how does the “log P (HCOOH)” value read?
The value was “I-A-Q2-274: log P (HCOOH): 4.95”.

With `Cc1cc(-n2nc(C)c(-c3ccc(Cl)c(Cl)c3)c2N)ccc1C(=O)NCC(F)(F)C(F)F` [I-A-Q2-323] as the molecule, how does the “log P (HCOOH)” value read?
The value was “I-A-Q2-323: log P (HCOOH): 4.32”.

For `Nc1c(-c2cc(Cl)cc(Cl)c2)c(C(F)(F)F)nn1-c1ccc(C(=O)NCCC(F)(F)F)cc1` [I-A-Q2-139], which “log P (HCOOH)” value is on record?
Its value is “I-A-Q2-139: log P (HCOOH): 4.25”.

For `Nc1c(-c2ccc(Cl)c(F)c2)c(C(F)(F)F)nn1-c1ccc(C(=O)NCc2ccccn2)cc1` [I-A-Q2-171], which “log P (HCOOH)” value is on record?
The value was “I-A-Q2-171: log P (HCOOH): 2.53”.

For `COC(=O)c1ccc(-n2nc(C(F)(F)F)cc2N)cc1C` [XI-A-080], which “log P (HCOOH)” value is on record?
Its value is “XI-A-080: log P (HCOOH): 1.97”.

For `Cc1cc(-n2nc(C(F)(F)F)c(-c3ccc(Cl)cc3Cl)c2N)ccc1C(=O)NCC1CC1` [I-A-Q2-410], which “log P (HCOOH)” value is on record?
Its value is “I-A-Q2-410: log P (HCOOH): 3.94”.

For `Cc1cc(-n2nc(C)c(-c3ccccc3Cl)c2N)ccc1C(=O)NCc1ccccn1` [I-A-Q2-373], which “log P (HCOOH)” value is on record?
Its value is “I-A-Q2-373: log P (HCOOH): 1.64”.

Which “log P (HCOOH)” value does the source give for `Cc1cc(-n2nc(C(C)C)c(-c3ccc(Cl)cc3)c2N)ccc1C(=O)NCc1ccccn1` [I-A-Q2-378] here?
Its value is “I-A-Q2-378: log P (HCOOH): 2.61”.

With `CC(NC(=O)c1ccc(-n2nc(C(F)(F)F)c(-c3cc(Cl)cc(Cl)c3)c2N)nc1)C(F)(F)F` (stereo not drawn) [I-A-Q2-100] as the molecule, how does the “log P (HCOOH)” value read?
Its value is “I-A-Q2-100: log P (HCOOH): 4.96”.

For `Nc1c(-c2cccc(F)c2)c(C(F)(F)F)nn1-c1ccc(C(=O)NC2CC2)cc1` [I-A-Q2-184], which “log P (HCOOH)” value is on record?
Its value is “I-A-Q2-184: log P (HCOOH): 2.76”.

Same assay, conditions: HCOOH; Table 4, compounds of formula I-A-Q4

Which “log P (HCOOH)” value does the source give for `Cc1nn(-c2ccc(Cl)cn2)c(N)c1-c1ccc(F)cc1` [I-A-Q4-038] here?
The value was “I-A-Q4-038: log P (HCOOH): 3.84”.

With `Nc1c(-c2ccc(Cl)c(Cl)c2)c(C(F)(F)F)nn1-c1ccc(Cl)cn1` [I-A-Q4-043] as the molecule, how does the “log P (HCOOH)” value read?
The value was “I-A-Q4-043: log P (HCOOH): 5.44”.

With `N#Cc1cc(-n2nc(C(F)(F)F)c(-c3cc(Cl)cc(Cl)c3)c2N)ccc1F` [I-A-Q4-103] as the molecule, how does the “log P (HCOOH)” value read?
Its value is “I-A-Q4-103: log P (HCOOH): 4.44”.

With `CC(C)c1nn(-c2ccc(Cl)cn2)c(N)c1-c1ccc(Cl)cc1` [I-A-Q4-027] as the molecule, how does the “log P (HCOOH)” value read?
Its value is “I-A-Q4-027: log P (HCOOH): 5.73”.

With `Nc1c(-c2cc(F)cc(Cl)c2)c(C(F)(F)F)nn1-c1ccc(C(=O)O)cc1` [I-A-Q4-100] as the molecule, how does the “log P (HCOOH)” value read?
Its value is “I-A-Q4-100: log P (HCOOH): 3.32”.

With `Nc1c(-c2cccc(Br)c2)c(C(F)(F)F)nn1-c1ccc(C(=O)O)cc1` [I-A-Q4-091] as the molecule, how does the “log P (HCOOH)” value read?
Its value is “I-A-Q4-091: log P (HCOOH): 3.29”.

For `Nc1c(-c2cc(Cl)cc(Cl)c2)c(C(F)(F)F)nn1-c1ccc(Cl)cn1` [I-A-Q4-014], which “log P (HCOOH)” value is on record?
The value was “I-A-Q4-014: log P (HCOOH): 5.76”.

Which “log P (HCOOH)” value does the source give for `Cc1ccccc1-c1c(C(F)(F)F)nn(-c2ccc(C(=O)O)cc2)c1N` [I-A-Q4-101] here?
The value was “I-A-Q4-101: log P (HCOOH): 2.94”.

With `CNc1cc(-n2nc(C(F)(F)F)c(-c3cc(Cl)cc(Cl)c3)c2N)ccc1C(=O)O` [I-A-Q4-120] as the molecule, how does the “log P (HCOOH)” value read?
Its value is “I-A-Q4-120: log P (HCOOH): 4.11”.

Which “log P (HCOOH)” value does the source give for `Nc1c(-c2ccc(Cl)cc2)c(C(F)F)nn1-c1ccc(Cl)cn1` [I-A-Q4-057] here?
The value was “I-A-Q4-057: log P (HCOOH): 4.45”.

Same assay, conditions: HPLC, reversed-phase C18, mobile phase with formic acid

For `Nc1c(-c2cc(Cl)cc(Cl)c2)c(C(F)(F)F)nn1-c1ccc(-n2cncn2)c(-n2cncn2)c1` [I-A-Q1-075], which “log P (HCOOH)” value is on record?
The value was “I-A-Q1-075: log P (HCOOH): 3.28”.

With `N#Cc1cc(-n2nc(C(F)(F)F)c(-c3cc(Cl)cc(Cl)c3)c2N)ccc1-n1cnc(C(N)=O)n1` [I-A-Q1-088] as the molecule, how does the “log P (HCOOH)” value read?
The value was “I-A-Q1-088: log P (HCOOH): 3.06”.

Which “log P (HCOOH)” value does the source give for `Nc1c(-c2cc(Cl)cc(Cl)c2)c(C(F)(F)F)nn1-c1ccc(CNC(=O)CC(F)(F)F)c(Cl)c1` [I-A-Q3-021] here?
Its value is “I-A-Q3-021: log P (HCOOH): 4.48”.

With `N#Cc1cc(-n2nc(C(F)F)c(-c3ccc(F)cc3F)c2N)ccc1-n1cncn1` [I-A-Q1-048] as the molecule, how does the “log P (HCOOH)” value read?
Its value is “I-A-Q1-048: log P (HCOOH): 2.39”.

Which “log P (HCOOH)” value does the source give for `N#Cc1cc(-n2nc(C(F)(F)F)c(-c3cccc(F)c3)c2N)ccc1-n1cncn1` [I-A-Q1-042] here?
Its value is “I-A-Q1-042: log P (HCOOH): 2.84”.

For `N#Cc1cc(-n2nc(C(F)(F)F)c(-c3ccc(F)c(F)c3)c2N)ccc1-n1cncn1` [I-A-Q1-044], which “log P (HCOOH)” value is on record?
The value was “I-A-Q1-044: log P (HCOOH): 3.10”.

For `Cc1nn(-c2ccc(-n3cncn3)c(C#N)c2)c(N)c1-c1ccc(F)cc1F` [I-A-Q1-057], which “log P (HCOOH)” value is on record?
Its value is “I-A-Q1-057: log P (HCOOH): 2.35”.

With `CCNC(=O)NCc1ccc(-n2nc(C(F)(F)F)c(-c3cc(Cl)cc(Cl)c3)c2N)cc1Cl` [I-A-Q3-024] as the molecule, how does the “log P (HCOOH)” value read?
The value was “I-A-Q3-024: log P (HCOOH): 3.85”.

Same assay, conditions: HPLC, reversed-phase C18, mobile phase with formic acid; read-out: log P (HCOOH)

For `Cc1cc(-n2nc(C(F)(F)F)c(-c3ccc(Cl)c(Cl)c3)c2N)ccc1C(=O)O` [I-A-Q4-012, 4-[5-Amino-4-(3,4-dichlorophenyl)-3-(trifluoromethyl)-1H-pyrazol-1-yl]-2-methylbenzoic acid], which chromatographic logP is on record?
The chromatographic logP was 3.92.
